This experiment has as its target T1, endothelin subtype A receptor ETAR (Homo sapiens, UniProt P25101).
T1 construct: TE-671 cells, human medulloblastoma (ATCC CRL 8805), naturally express endothelin subtype A receptor ETAR; host or cells: TE-671 human medulloblastoma cells
T1 sequence (P25101 21-427): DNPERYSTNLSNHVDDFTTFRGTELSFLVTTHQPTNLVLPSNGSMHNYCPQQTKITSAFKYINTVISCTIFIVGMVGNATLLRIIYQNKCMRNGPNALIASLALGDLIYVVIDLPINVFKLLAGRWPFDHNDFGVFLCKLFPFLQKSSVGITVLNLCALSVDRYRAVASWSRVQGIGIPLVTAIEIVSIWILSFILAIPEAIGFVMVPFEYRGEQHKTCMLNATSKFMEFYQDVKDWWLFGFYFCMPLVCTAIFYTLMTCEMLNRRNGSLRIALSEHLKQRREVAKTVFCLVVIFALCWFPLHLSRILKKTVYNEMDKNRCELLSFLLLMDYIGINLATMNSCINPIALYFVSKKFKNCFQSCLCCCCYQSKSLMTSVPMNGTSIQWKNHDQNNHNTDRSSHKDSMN
Put plainly: ET-1 induced intracellular calcium mobilization in TE-671 cells (flow apparatus, FURA-2). It counts as cell-based.

The source of these data is US6958221B2, “Cell flow apparatus and method for real-time measurements of patient cellular responses” (Caliper Life Sciences, Inc., priority 1996, dated 2005).

Where a SMILES comes first, the peptide text is derived from it. [ ]: non-standard residue; d: D form.

Description: TE-671 cells, human medulloblastoma (ATCC CRL 8805), naturally express endothelin subtype A receptor ETAR.
The apparatus was a negative pressure computer controlled unit as described above. This run was performed in the presence of several concentrations of ETAR specific competitive antagonist BQ-123 (shown in nanomolar concentration).
TE-671 cells were prepared for use in the cell physiometer of the present invention by growing them in a T75 flask until confluence. The growth media was decanted and the cells were washed twice with Dulbecco's phosphate buffered saline (DPBS) and supplemented with a fresh DPBS containing 2 μM FURA-2AM, which easily penetrates into cell cytoplasm and is hydrolyzed there with nonspecific esterases to form FURA 2, a dye which is sensitive to the ionized form of calcium. After 30 min incubation, the cells were supplemented with the equal volume of fresh DPBS and incubated for further 30 min. The cells, now loaded with the dye, were detached from the flask bottom with 0.05% Trypsin-EDTA solution. The cells were then washed twice with DPBS, containing 0.1% soybean trypsin inhibitor, and resuspended in calcium-free, magnesium-free and phenol red-free Dulbecco's modified Eagle's medium (DMEM).
This gives three fold final dilution for each component of the flow passing through mixing zone 343 and eventually, detector 355. The proportioning valve 327, was programmed for the first, second and third runs to give final BQ-123 concentration of zero, 10 nM and 40 nM, respectively.
The flow rate and the length of the reaction developing line were chosen so that the time interval from the point of mixing the cells with the compound to the point of signal detection in the flow-through optical cell was 40 seconds.

With `CC(C)C[C@@H]1NC(=O)[C@@H](C(C)C)NC(=O)[C@@H]2CCCN2C(=O)[C@@H](CC(=O)O)NC(=O)[C@@H](Cc2c[nH]c3ccccc23)NC1=O` [BQ-123] (cyclo(L[dW][dD]P[dV])), the Kb was 11 nM. Further, the “type of inhibition (shift of ET-1 activation curves)” value (TE-671 cells, activation curves parallel shifted to the right in the presence of BQ-123) was “competitive type of inhibition”. Under “TE-671 cells, corresponds to the pA2 value, read-out: inhibition constant, K1”, the Ki was 11 nM.
